Assay: Rotarod test, time on rod
Type: in vivo, C57BL/6 mice
Details: mice, 30 minutes after i.p. injection
Method: FIG. 6: Time that C57BL/6 mice stayed on rod 30 minutes after i.p. injection of PBS without (control) or with either 50 μg g^−1 body weight DXO or 100 μg g^−1 body weight compound (4); n=5 male mice each. Significance determined by Student's t-test. *P<0.05. All values are mean±SD.

SMILES: CN1CC[C@@]23CCCC[C@@H]2[C@@H]1Cc1ccc(O)cc13 [dextrorphan, (+)-17-methyl-9α,13α,14α-morphinan-3-ol]
- coordination deficits in rotarod test: does
